Tested on: athymic nude mice doubly xenografted with PC3 cells and 22Rv1 cells
Test: Quantitative PET imaging in doubly xenografted mice
Type: in vivo
Conditions: PET VOI analysis, 50-70 min p.i., retro-orbital injection

- uptake in 22Rv1 tumor: 3.22 % ID/g
SMILES: O=C([O-])CN(CCN(CC(=O)[O-])Cc1cc(CCC(=O)NCCCCCC(=O)NCCCC[C@H](NC(=O)N[C@@H](CCC(=O)O)C(=O)O)C(=O)O)ccc1[O-])Cc1cc(CCC(=O)O)ccc1[O-].[68Ga+3].[OH3+] [[^68Ga]Ga-PSMA11, HO-Glu-CO-Lys(HBED-CC-Ahx)-OH]

— PMC10184157 (ACS Medicinal Chemistry Letters, 2023)
